Experimental data taken from PubChem BioAssay (NCI).
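Cultured in 96-well plates, cells were exposed to test compound for 48 hours across five concentrations. GI50 = concentration required for 50% inhibition of growth. TGI marks complete inhibition of growth.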

What was measured:
Experiment in all cases: NCI-60 cell line screen, 48 h
786-0 renal = tested on: 786-0 renal
DLD-1 colon = tested on: DLD-1 colon
DMS 114 small cell lung = tested on: DMS 114 small cell lung
SK-OV-3 ovarian = tested on: SK-OV-3 ovarian
LXFL 529 NSCLC = tested on: LXFL 529 NSCLC
M19-MEL melanoma = tested on: M19-MEL melanoma
XF 498 CNS = tested on: XF 498 CNS

Row | SMILES | TGI (786-0 renal) | TGI (DLD-1 colon) | TGI (DMS 114 small cell lung) | TGI (SK-OV-3 ovarian) | TGI (LXFL 529 NSCLC) | TGI (M19-MEL melanoma) | TGI (XF 498 CNS) | GI50 (786-0 renal) | GI50 (DLD-1 colon) | GI50 (DMS 114 small cell lung) | GI50 (LXFL 529 NSCLC) | GI50 (M19-MEL melanoma) | GI50 (SK-OV-3 ovarian) | GI50 (XF 498 CNS)
1 | Oc1ccc(Br)cc1C=Nc1ccc(N=Cc2cc(Br)ccc2O)cc1 | > 100 µM | > 100 µM | > 100 µM | > 100 µM |  |  |  |  |  |  |  |  |  | 
2 | COc1cc(C(=O)N2CCc3c([nH]c4c([N+](=O)[O-])c(OC)ccc34)C2C)cc(OC)c1OC (stereo unspecified) | > 100 µM | > 100 µM | > 100 µM |  | > 100 µM |  |  |  |  |  |  |  |  | 
3 | CC(=O)OCCOCNC(=S)N/N=C/c1ccc(Br)s1 | > 100 µM | > 100 µM | > 100 µM | > 100 µM | > 100 µM | > 100 µM | > 100 µM |  |  |  |  |  |  | 
4 | CC1=C(C(=O)NNS(=O)(=O)c2ccc(C)cc2)CC(C(=O)NNS(=O)(=O)c2ccc(C)cc2)=C(C)N1 | > 100 µM | > 100 µM | > 100 µM | > 100 µM | > 100 µM | > 100 µM | > 100 µM |  |  |  |  |  |  | 
5 | Cc1cccc(N=C2NC(=O)C(CC(=O)Nc3cccc(C)c3C)S2)c1 (stereo unspecified) | > 100 µM | > 100 µM | > 100 µM |  | > 100 µM | > 100 µM | > 100 µM |  |  |  |  |  |  | 
6 | C=CCn1c2c(sc1=S)C(S)N=CN2 (stereo unspecified) | > 100 µM | > 100 µM | > 100 µM | > 100 µM | > 100 µM | > 100 µM | > 100 µM |  |  |  |  |  |  | 
7 | OCC(O)CNc1ccnc2cc(Cl)ccc12 (stereo unspecified) | > 100 µM | > 100 µM | > 100 µM | > 100 µM | > 100 µM | > 100 µM | > 100 µM |  |  |  |  |  |  | 
8 | [F][Sn]([F])([c]1ccccc1)[c]1ccccc1 | 2.98 µM | 3.47 µM | 5.8 µM | 7.49 µM | 2.08 µM | 6.2 µM | 3.45 µM | 1.57 µM | 1.88 µM | 2 µM | 0.815 µM | 2.35 µM | 2.31 µM | 1.99 µM
9 | CCOc1ccccc1NC(=O)C(=O)Cc1nc2ccccc2s1 | > 100 µM | > 100 µM | > 100 µM | > 100 µM | > 100 µM | > 100 µM | > 100 µM |  |  |  |  |  |  | 
10 | O=C(O)CN(c1ccccc1)S(=O)(=O)c1ccc([N+](=O)[O-])cc1 | > 100 µM | > 100 µM |  | > 100 µM | > 100 µM | > 100 µM | > 100 µM |  |  |  |  |  |  | 
11 | Cc1cccc(C(C)C)c1NC(=O)C(=O)C(C(=O)c1ccccc1F)C1OC(=O)c2ccccc21 (stereo unspecified) | 36.6 µM | 30.8 µM | 36.1 µM | 64.9 µM | 27.4 µM | 26.4 µM | 23.3 µM |  |  |  |  |  |  | 
